Measured values as given in US8334236B2, “Ring-fused 2-pyridone derivatives and herbicides” (Kumiai Chemical Industry Co., Ltd., priority 2009, dated 2012).

Assays:
[1] = tested on: Echinochloa oryzicola Vasing; assay: Test Example 1: herbicidal effects in paddy field soil treatment; assay type: in vivo; parameters: scale not given here; conditions: 1000 g active ingredient per hectare, 21st day after treatment
Protocol: (§1) 100-cm^2 plastic pots were filled with paddy field soil. After puddling and leveling, seeds of Echinochloa oryzicola Vasing, Monochoria vaginalis (Burm. f.) Presl var. plantaginea (Roxb.) Solms-Laub., and Scirpus juncoides Roxb. var. ohwianus. T. Koyama were sowed in the pots, and the soil was waterlogged to a water depth of 3 cm. On the next day, a wettable powder formulation prepared according to Formulation Example 1 was diluted with water, and the dilution was added dropwise onto the water surface. The amount of application was an amount equivalent to 1000 g of the active ingredient per hectare. Thereafter, the plants were grown in a greenhouse, and on the 21st day after the treatment, the herbicidal effects were investigated according to the criteria described in Table 71.
(§2) In addition, comparative compound A, comparative compound B, comparative compound C, and comparative compound D in the tables represent Compound Nos. 70, 34, 32, and 31, respectively, as described in EP-283261. The structural formulas of these compounds are presented below.

[2] = tested on: Monochoria vaginalis (Burm. f.) Presl var. plantaginea (Roxb.) Solms-Laub.; assay: as above; assay type: in vivo; parameters: scale not given here; conditions: 1000 g active ingredient per hectare, 21st day after treatment
Protocol: as §1, §2

[3] = tested on: Scirpus juncoides Roxb. var. ohwianus. T. Koyama; assay: as above; assay type: in vivo; parameters: scale not given here; conditions: 1000 g active ingredient per hectare, 21st day after treatment
Protocol: as §1, §2

[4] = tested on: Abutilon theophrasti medicus; assay: Test Example 2: herbicidal effects in farmland soil treatment; assay type: in vivo; parameters: scale not given here; conditions: 1000 g active ingredient per hectare, 21st day after treatment
Protocol: (§3) 80-cm^2 plastic pots were filled with farmland soil. Seeds of Abutilon theophrasti medicus and Amaranthus retroflexus were sowed in the pots, and soil was covered. A wettable powder formulation prepared according to Formulation Example 1 was diluted with water, and the dilution was uniformly sprayed on the soil surface with a small sprayer, in an amount equivalent to 1000 liters per hectare, such that 1000 g of the active ingredient was applied per hectare. Thereafter, the plants were grown in a greenhouse, and on the 21st day after the treatment, the herbicidal effects were investigated according to the criteria described in Table 71 shown above.

Amaranthus retroflexus [5] = assay: as above; assay type: in vivo; parameters: scale not given here; conditions: 1000 g active ingredient per hectare, 21st day after treatment
Protocol: as §3

Echinochloa crus-galli = assay: as above; assay type: in vivo; parameters: scale not given here; conditions: 1000 g active ingredient per hectare, 21st day after treatment
Setaria viridis [6] = assay: as above; assay type: in vivo; parameters: scale not given here; conditions: 1000 g active ingredient per hectare, 21st day after treatment
[7] = tested on: Abutilon theophrasti medicus; assay: Test Example 3: herbicidal effects in farmland foliar treatment; assay type: in vivo; parameters: scale not given here; conditions: 1000 g active ingredient per hectare, 14th day after treatment
Protocol: (§4) 80-cm^2 plastic pots were filled with farmland soil. Seeds of Echinochloa crus-galli (L.) P. Beauv. var. crus-galli, Abutilon theophrasti medicus, and Amaranthus retroflexus were sowed in the pots, and the plants were grown for two weeks in a greenhouse. A wettable powder formulation prepared according to Formulation Example 1 was diluted with water, and the dilution was applied by foliar treatment by spraying with a small sprayer over the whole plant from the upper part, in an amount equivalent to 1000 liters per hectare, such that 1000 g of the active ingredient was applied per hectare. Thereafter, the plants were grown in a greenhouse, and on the 14th day after the treatment, the herbicidal effects were investigated according to the criteria described in Table 71 shown above.

Amaranthus retroflexus [8] = assay: as above; assay type: in vivo; parameters: scale not given here; conditions: 1000 g active ingredient per hectare, 14th day after treatment
Protocol: as §4

[9] = tested on: Echinochloa crus-galli (L.) P. Beauv. var. crus-galli; assay: as above; assay type: in vivo; parameters: scale not given here; conditions: 1000 g active ingredient per hectare, 14th day after treatment
Protocol: as §4

Setaria viridis [10] = assay: as above; assay type: in vivo; parameters: scale not given here; conditions: 1000 g active ingredient per hectare, 14th day after treatment

| melting point [°C] | Structure (SMILES) | Herbicidal effect index, Echinochloa oryzicola [1] | Herbicidal effect index, Monochoria vaginalis [2] | Herbicidal effect index, Scirpus juncoides [3] | Herbicidal effect index, Abutilon thophrasti [4] | Herbicidal effect index, Amaranthus retroflexus (Amaranthus retroflexus [5]) | Herbicidal effect index, Echinochloa crus-galli (Echinochloa crus-galli) | Herbicidal effect index, Setaria viridis (Setaria viridis [6]) | Herbicidal effect index, Abutilon theoprasti [7] | Herbicidal effect index, Amaranthus retroflexus (Amaranthus retroflexus [8]) | Herbicidal effect index, Echinochloa crus-galli [9] | Herbicidal effect index, Setaria viridis (Setaria viridis [10]) |
| --- | --- | --- | --- | --- | --- | --- | --- | --- | --- | --- | --- | --- |
| 179 to 181 | Cn1c(=O)c(C(=O)C2=C(O)CCCC2=O)cc2ccccc21 [I-2, 3-(2-hydroxy-6-oxo-1-cyclohexenecarbonyl)-1-methylquinolin-2(1H)-one] | 5 | 5 | 5 |  |  |  |  |  |  |  |  |
| 190 to 192 | O=C1CCCC(O)=C1C(=O)c1cc2cccnc2n(Cc2ccccc2)c1=O [II-24, 1-benzyl-3-(2-hydroxy-6-oxo-1-cyclohexenecarbonyl)-1,8-naphthyridin-2(1H)-one] | 5 | 5 | 5 | 5 | 5 | 5 | 3 |  |  |  |  |
| 147 to 150 | COc1ccccc1Cn1c(=O)c(C(=O)C2=C(O)CCCC2=O)cc2cccnc21 [II-37, 3-(2-hydroxy-6-oxo-1-cyclohexenecarbonyl)-1-(2-methoxybenzyl)-1,8-naphthyridin-2(1H)-one] | 5 | 5 | 5 |  |  |  |  |  |  |  |  |
|  | Cc1ccccc1-n1c(=O)c(C(=O)C2=C(O)CCCC2=O)cc2cccnc21 [II-48] | 5 | 5 | 5 | 4 | 5 | 5 | 5 | 5 | 5 | 5 | 5 |
|  | O=C1CCCC(O)=C1C(=O)c1cc2cccnc2n(-c2cccc(C(F)(F)F)c2)c1=O [II-52] | 5 | 5 | 5 | 5 | 5 | 5 | 5 | 5 | 5 | 5 | 5 |
|  | COc1ccccc1-n1c(=O)c(C(=O)C2=C(O)CCCC2=O)cc2cccnc21 [II-54] | 5 | 5 | 5 | 5 | 5 | 5 | 5 | 5 | 5 | 5 | 5 |
|  | COc1cccc(-n2c(=O)c(C(=O)C3=C(O)CCCC3=O)cc3cccnc32)c1 [II-55] | 5 | 5 | 5 | 5 | 5 | 5 | 5 | 5 | 5 | 5 | 5 |
|  | COc1ccc(-n2c(=O)c(C(=O)C3=C(O)CCCC3=O)cc3cccnc32)cc1 [II-56] | 5 | 5 | 5 | 5 | 5 | 5 | 5 | 5 | 5 | 5 | 5 |
|  | Cc1ccc(C)c(-n2c(=O)c(C(=O)C3=C(O)CCCC3=O)cc3cccnc32)c1 [II-58] | 5 | 5 | 5 | 5 | 5 | 5 | 5 | 5 | 5 | 5 | 5 |
|  | Cc1ccc2cc(C(=O)C3=C(O)CCCC3=O)c(=O)n(-c3ccccc3)c2n1 [II-123] | 5 | 5 | 5 | 5 | 5 | 5 | 5 | 5 | 5 | 5 | 5 |
|  | CC(C)c1ccc2cc(C(=O)C3=C(O)CCCC3=O)c(=O)n(-c3ccccc3)c2n1 [II-128] | 5 | 5 | 5 | 4 | 5 | 5 | 5 | 5 | 5 | 5 | 5 |
|  | Cn1c(=O)c(C(=O)C2=C(O)CCCC2=O)cc2ccc(C(F)F)nc21 [II-131] | 5 | 5 | 5 | 5 | 5 | 4 | 3 | 5 | 5 | 4 | 4 |
|  | O=C1CCCC(O)=C1C(=O)c1cc2ccc(C(F)F)nc2n(-c2ccccc2)c1=O [II-133] | 5 | 5 | 5 | 5 | 5 | 5 | 5 | 5 | 5 | 5 | 5 |
|  | Cn1c(=O)c(C(=O)C2=C(O)CCCC2=O)cc2ccc(C(F)(F)Cl)nc21 [II-141] | 5 | 5 | 5 | 5 | 3 | 3 | 4 | 5 | 4 | 3 | 4 |
|  | O=C1CCCC(O)=C1C(=O)c1cc2ccc(C(F)(F)Cl)nc2n(-c2ccccc2)c1=O [II-143] | 5 | 5 | 5 | 5 | 5 | 5 | 5 | 5 | 5 | 5 | 5 |
